Assays:
Conditions in all cases: human; call rule not given here
[1] = system: Hepatotoxicity; assay: FDA HLAED, serum glutamic pyruvic transaminase (SGPT) increase
[2] = system: Hepatotoxicity; assay: FDA HLAED, liver enzyme composite activity
[3] = system: Hepatotoxicity; assay: FDA HLAED, gamma-glutamyl transferase (GGT) increase
[4] = system: Hepatotoxicity; assay: FDA HLAED, alkaline phosphatase increase
[5] = system: Hepatotoxicity; assay: FDA HLAED, serum glutamic oxaloacetic transaminase (SGOT) increase
[6] = system: Hepatotoxicity; assay: FDA HLAED, lactate dehydrogenase (LDH) increase
Throughout, for GGT Increase - Index Value: reference of the scale not given here.
Throughout, for LDH Increase - Index Value: reference of the scale not given here.

SMILES | SGPT Increase - Activity Score [1] | SGPT Increase - Index Value [1] | SGPT Increase - Number of Reports [1] | Composite Activity - Active [2] | Composite Activity - Marginal [2] | Composite Activity - Score [2] | GGT Increase - Activity Score [3] | GGT Increase - Index Value [3] | GGT Increase - Number of Reports [3] | Alkaline Phosphatase Increase - Activity Score [4] | Alkaline Phosphatase Increase - Index Value [4] | Alkaline Phosphatase Increase - Number of Reports [4] | SGOT Increase - Activity Score [5] | SGOT Increase - Index Value [5] | SGOT Increase - Number of Reports [5] | LDH Increase - Activity Score [6] | LDH Increase - Index Value [6] | LDH Increase - Number of Reports [6] | other results
CC(CCc1ccccc1)NCC(O)c1ccc(O)c(C(N)=O)c1 (stereo unspecified) [LABETALOL] | Inactive | 1.1 | >= 4 | 0 | 1 | Inactive | Inactive | 0 | < 4 | Inactive | 0.9 | >= 4 | Marginally Active | 3 | >= 4 | Inactive | 0.4 | < 4 | 
Nc1ccn([C@@H]2CS[C@H](CO)O2)c(=O)n1 [LAMIVUDINE] | Active | 9 | >= 4 | 2 | 0 | Active | Inactive | 1.7 | >= 4 | Inactive | 2.1 | >= 4 | Active | 8.7 | >= 4 | Inactive | 2.1 | >= 4 | 
Nc1nnc(-c2cccc(Cl)c2Cl)c(N)n1 [LAMOTRIGINE] | Active | 4 | >= 4 | 2 | 1 | Active | Inactive | 2 | < 4 | Inactive | 0.5 | < 4 | Active | 4 | >= 4 | Marginally Active | 3 | >= 4 | 
Cc1c(OCC(F)(F)F)ccnc1C[S+]([O-])c1nc2ccccc2[nH]1 (stereo unspecified) [LANSOPRAZOLE] | Inactive | 1.2 | >= 4 | 0 | 0 | Inactive | Inactive | 1.1 | >= 4 | Inactive | 0.5 | < 4 | Inactive | 0.9 | >= 4 | Inactive | 0.5 | < 4 | 
CC(C)OC(=O)CCC/C=C\C[C@@H]1[C@@H](CC[C@@H](O)CCc2ccccc2)[C@H](O)C[C@@H]1O [LATANOPROST] | Inactive | 0 | < 4 | 0 | 0 | Inactive | Inactive | 0 | < 4 | Inactive | 0.2 | < 4 | Inactive | 0.2 | < 4 | Inactive | 0 | < 4 | 
c1ccc([C@H]2CN3CCSC3=N2)cc1 [LEVAMISOLE] | Inactive | 8.8 | < 4 |  |  |  | Inactive | 5.9 | < 4 | Active | 38.3 | >= 4 | Active | 26.5 | >= 4 | Active | 29.4 | >= 4 | Composite Activity - Active ([2]; Liver): 3; Composite Activity - Marginal ([2]; Liver): 0; Composite Activity - Score ([2]; Liver): Active
CC(C)(C)NC[C@H](O)COc1cccc2c1CCCC2=O [LEVOBUNOLOL] | Inactive | 0 | < 4 | 0 | 0 | Inactive | Inactive | 0 | < 4 | Inactive | 0 | < 4 | Inactive | 0 | < 4 | Inactive | 0 | < 4 | 
C[C@@H]1CN([C@H]2CC[C@](C#N)(c3ccc(F)cc3)CC2)CC[C@]1(C(=O)O)c1ccccc1 [LEVOCABASTINE] | Inactive | 0 | < 4 | 0 | 0 | Inactive | Inactive | 0 | < 4 | Inactive | 0 | < 4 | Inactive | 0 | < 4 | Inactive | 0 | < 4 | 
C[N+](C)(C)C[C@H](O)CC(=O)[O-] [LEVOCARNITINE] | Inactive | 0 | < 4 | 0 | 0 | Inactive | Inactive | 0 | < 4 | Inactive | 0 | < 4 | Inactive | 0 | < 4 | Inactive | 0 | < 4 | 
C[C@H]1COc2c(N3CCN(C)CC3)c(F)cc3c(=O)c(C(=O)O)cn1c23.C[C@H]1COc2c(N3CCN(C)CC3)c(F)cc3c(=O)c(C(=O)O)cn1c23.O [LEVOFLOXACIN] | Inactive | 0 | < 4 | 0 | 0 | Inactive | Inactive | 0 | < 4 | Inactive | 0 | < 4 | Inactive | 0 | < 4 | Inactive | 0 | < 4 | 
C#C[C@]1(O)CC[C@H]2[C@@H]3CCC4=CC(=O)CC[C@@H]4[C@H]3CC[C@@]21CC [LEVONORGESTREL] | Active | 22.7 | >= 4 |  |  |  | Active | 34 | >= 4 | Active | 34 | >= 4 | Active | 39.7 | >= 4 | Active | 28.3 | >= 4 | Composite Activity - Active ([2]; Liver): 5; Composite Activity - Marginal ([2]; Liver): 0; Composite Activity - Score ([2]; Liver): Active
NCCCC[C@H](N[C@@H](CCc1ccccc1)C(=O)O)C(=O)N1CCC[C@H]1C(=O)O [LISINOPRIL ANHYDROUS] | Inactive | 1.4 | >= 4 | 0 | 0 | Inactive | Inactive | 1 | >= 4 | Inactive | 2 | >= 4 | Inactive | 1.5 | >= 4 | Inactive | 1.2 | >= 4 | 

Source: ChEMBL document CHEMBL1697781, “Assessment of the health effects of chemicals in humans: II. Construction of an adverse effects database for QSAR modeling” (Curr Drug Discov Technol, 2004)
